Measured values: patent publication US9851358B2, “Methods and pharmaceutical compositions for preventing or reducing metastatic dissemination” (INSERM (Institut National de la Sante et de la Recherche …, priority 2014, dated 2017)
Entries after “also recorded” stand apart in the source; their conditions may differ.

Legend:
MDA-MB-231 cells [1] = assay: Membrane fluidity by EPR (S parameter), MDA-MB-231; type: cell-based, human; settings: MDA-MB-231, pretreatment with non-cytotoxic dose
Method: (§1) Membrane fluidity was determined by a spin-labeling method using EPR, as previously described^27. Briefly, plasma membranes of living cells were labeled by incubating cells for 15 min at 37° C. with 12-doxyl stearic acid (36 μg/mL), a fatty acid with a stable nitroxide radical ring at the C-12 position. Cells were then washed twice with PBS to remove excess 12-doxyl stearic acid and EPR spectra of the labeled samples were acquired at ambient temperature on a Bruker Elexsys EPR spectrometer operating at 3509.25 G center field, 20 mW microwave power, 9.86 GHz microwave frequency, 1.77 G modulation amplitude, and 100 kHz modulation frequency. Fluidity of the spin-labeled membranes was quantified by calculating the S parameter. An increase in the S parameter reflects a decrease in membrane fluidity, and vice versa.

MDA-MB-231 cells [2] = assay: Boyden chamber cell migration, MDA-MB-231; type: cell-based, human; settings: MDA-MB-231, pretreatment with non-cytotoxic dose, cl-CD95L
Method: (§2) Boyden chambers contained membranes with a pore size of 8 μm (Millipore, Molsheim, France). After hydration of the membranes, mesenchymal cells (10^5 cells per chamber) or epithelial cells (3×10^5 cells per chamber) were added to the top chamber in low serum (1%)-containing medium. The bottom chamber was filled with low serum (1%)-containing medium in the presence or absence of cl-CD95L (100 ng/mL). Cells were cultured for 24 h at 37° C. To quantify migration, cells were mechanically removed from the top side of the membrane using a cotton-tipped swab, and migrating cells from the reverse side were fixed with methanol and stained with Giemsa. For each experiment, five representative pictures were taken for each insert, then cells were lyzed and absorbance at 560 nm correlated to the amount of Giemsa stain was measured.

lung cancer cells = settings: via activation of protein phosphatase 2A; cited from earlier work
[3] = tested on: mesenchymal breast cancer cells; assay: Boyden chamber cell migration, mesenchymal breast cancer cells; type: cell-based, human; settings: non-cytotoxic concentration; for basal migration: Boyden chamber 24 h; for CD95-mediated migration: cl-CD95L 100 ng/mL 24 h, Boyden chamber
Method: FIG. 1. Treatment of mesenchymal breast cancer cells with a non-toxic amount of exogenous C16:0 ceramide reduces plasma membrane fluidity and prevents basal and CD95-mediated cell migration. A. The indicated cells were pre-incubated with or without a non-cytotoxic dose (1 μM) of C16:0 ceramide (C16-Cer) for 60 min, and were then incubated with or without cl-CD95L (100 ng/mL) for 30 min. Membrane fluidity was assessed by EPR. Values are means±SEM of four independent experiments (*, p<0.05; ns, not significant). B. Indicated cells were pretreated with or without C16:0 ceramide ([…]) for 60 min and were then incubated with or without cl-CD95L (100 ng/mL) for 24 h. Cell migration was assessed by the Boyden chamber assay. Bars=70 μm. Giemsa-stained cells that migrated to the lower side of the membrane were lysed and absorbance at 560 nm was recorded. Values represent the means and SEM of three independent experiments (*p<0.05).
as §2

[4] = tested on: mesenchymal breast cancer cells; assay: Cytotoxicity of exogenous C16:0 ceramide; type: cell-based, human; settings: 1 μM
[5] = tested on: mesenchymal breast cancer cells; assay: Membrane fluidity by EPR, mesenchymal breast cancer cells; type: cell-based, human; settings: for CD95-mediated increase in membrane fluidization: 1 μM pre-incubation 60 min, then cl-CD95L 100 ng/mL 30 min
Method: FIG. 1. Treatment of mesenchymal breast cancer cells with a non-toxic amount of exogenous C16:0 ceramide reduces plasma membrane fluidity and prevents basal and CD95-mediated cell migration. A. The indicated cells were pre-incubated with or without a non-cytotoxic dose (1 μM) of C16:0 ceramide (C16-Cer) for 60 min, and were then incubated with or without cl-CD95L (100 ng/mL) for 30 min. Membrane fluidity was assessed by EPR. Values are means±SEM of four independent experiments (*, p<0.05; ns, not significant). B. Indicated cells were pretreated with or without C16:0 ceramide ([…]) for 60 min and were then incubated with or without cl-CD95L (100 ng/mL) for 24 h. Cell migration was assessed by the Boyden chamber assay. Bars=70 μm. Giemsa-stained cells that migrated to the lower side of the membrane were lysed and absorbance at 560 nm was recorded. Values represent the means and SEM of three independent experiments (*p<0.05). Membrane fluidity was determined by a spin-labeling method using EPR, as previously described^27. Briefly, plasma membranes of living cells were labeled by incubating cells for 15 min at 37° C. with 12-doxyl stearic acid (36 μg/mL), a fatty acid with a stable nitroxide radical ring at the C-12 position. Cells were then washed twice with PBS to remove excess 12-doxyl stearic acid and EPR spectra of the labeled samples were acquired at ambient temperature on a Bruker Elexsys EPR spectrometer operating at 3509.25 G center field, 20 mW microwave power, 9.86 GHz microwave frequency, 1.77 G modulation amplitude, and 100 kHz modulation frequency. Fluidity of the spin-labeled membranes was quantified by calculating the S parameter. An increase in the S parameter reflects a decrease in membrane fluidity, and vice versa.

[6] = tested on: CD95-mediated PI3K signaling pathway; assay: Akt serine 473 phosphorylation (CD95-mediated PI3K signaling); type: cell-based
Method: Cells were lyzed for 30 min at 4° C. in lysis buffer (25 mM HEPES pH 7.4, 1% (v/v) Triton X-100, 150 mM NaCl, and 2 mM EGTA supplemented with a mixture of protease inhibitors). Protein concentration was determined by the bicinchoninic acid method (Pierce, Rockford, Ill., USA) according to the manufacturer's protocol. Proteins were resolved by 8, 10, or 12% SDS-PAGE and transferred to a nitrocellulose membrane (GE Healthcare, Buckinghamshire, UK). The membrane was blocked for 15 min with TBST (50 mM Tris, 160 mM NaCl, and 0.05% (v/v) Tween 20, pH 7.4) containing 5% (w/v) dried skimmed milk (TBSTM), and was then incubated overnight at 4° C. with the primary antibody diluted in TBSTM. The membrane was washed with TBST and was then incubated with peroxidase-labeled anti-mouse IgG1 or IgG2a (CliniSciences, Nanterre, France) for 45 min. Proteins were visualized using the enhanced chemiluminescence substrate kit (ECL RevelBlOt®, Ozyme, Saint Quentin en Yvelines, France).

[7] = tested on: epithelial cell line MCF7; assay: Boyden chamber cell migration, MCF7; type: cell-based, human; settings: MCF7, non-cytotoxic concentration
Method: as §2

[8] = tested on: epithelial cell line MCF7; assay: Membrane fluidity by EPR, MCF7; type: cell-based, human; settings: MCF7, non-cytotoxic concentration, 48 hours
Method: as §1

CerS = settings: cited from earlier work
NMuMG cells = settings: cited from earlier work

CCCCCCCCC1CC1CCCCCCCC(=O)OCCOCCOC (centres unmarked) [A2C]
basal membrane fluidity (MDA-MB-231 cells [1]): significantly enhanced
CD95-mediated increase in plasma membrane fluidity (MDA-MB-231 cells [1]; then cl-CD95L): significantly enhanced
CD95-mediated migration (MDA-MB-231 cells [2]): stimulated

CCCCCCCCCCCCC/C=C/[C@@H](O)[C@H](CO)NC(C)=O [C2-ceramide]
migration of lung cancer cells in response to nicotine (lung cancer cells): inhibit

CCCCCCCCCCCCC/C=C/[C@@H](O)[C@H](CO)NC(=O)CCCCCCCCCCCCCCC [C16-ceramide, N-palmitoyl-D-sphingosine]
basal migration [3]: impaired
basal migration ([3]; listed as C16:0 ceramide): prevents
CD95-mediated migration [3]: impaired; also recorded: inhibited
CD95-mediated migration ([3]; listed as C16:0 ceramide): prevents
cytotoxicity [4]: non-cytotoxic
CD95-mediated increase in membrane fluidization [5]: inhibited
CD95-mediated increase in membrane fluidization ([5]; listed as C16:0 ceramide): completely inhibited
basal S parameter ([5]; non-cytotoxic concentration (1 μM), increase in S = decrease in fluidity): slightly increased
plasma membrane fluidity ([5]; non-toxic amount of exogenous C16:0 ceramide): reduces
CD95-mediated PI3K signaling pathway (phosphorylation at serine 473 of Akt) [6]: did not affect

CCCC[C@@H](C)[C@@H](OC(=O)C[C@@H](CC(=O)O)C(=O)O)[C@H](C[C@@H](C)C[C@H](O)CCCC[C@@H](O)C[C@H](O)[C@H](C)N)OC(=O)C[C@@H](CC(=O)O)C(=O)O [FB1, Fumonisin B1]
CD95-mediated cell migration [7]: enhanced
basal cell migration [7]: enhanced
CD95-induced membrane fluidity [8]: slightly, but significantly, increased
basal membrane fluidity [8]: slightly, but significantly, increased
CerS activity (CerS): selectively inhibits

gangliotetraosylceramide [Gg4]
reversal of TGF-β-induced EMT (NMuMG cells): does
